Assay results: patent publication US8445501B2, “Substituted 7-carboxamido-pyrrolo[3,2-d]pyrimidines” (Takeda GmbH, priority 2008, dated 2013)

What follows are compounds tested against T1, human PDE5 (Homo sapiens, UniProt O76074) (assay: Inhibition of the type 5 phosphodiesterase (PDE5) activity, modified SPA test with platelet lysate). Details: PDE5 from human platelet lysate, 0.5 μM cGMP.
T1 construct: from tissue; host or cells: platelets from fresh blood of human donors (lysate, 10,000 g supernatant)
Assay type: biochemical
Outline: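 SPA-based cGMP hydrolysis, [3H]cGMP tracer in 0.5 μM cGMP, by sonicated human platelet lysate; motapizone (1 μM) and a PDE2 inhibitor (10 nM) block other PDEs. Reaction 15 min at 37 °C after 5 min preincubation, quenched with beads containing IBMX. IC50 from concentration-effect curves.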

Compound | IC50
COCC(=O)N[C@H]1CC[C@@H](NC(=O)c2c[nH]c3c(-c4cc(OC)ccc4OCC4CC4)ncnc23)CC1 [Example 69, cis-4-(2-Cyclopropylmethoxy-5-methoxy-phenyl)-5H-pyrrolo[3,2-d]pyrimidine-7-carboxylic acid [4-(2-methoxy-acetylamino)-cyclohexyl]-amide] | 1.78 nM
CCOC(=O)N[C@H]1CC[C@@H](NC(=O)c2c[nH]c3c(-c4cc(OC)ccc4OCC4CC4)ncnc23)CC1 [Example 70, cis-(4-{[4-(2-Cyclopropylmethoxy-5-methoxy-phenyl)-5H-pyrrolo[3,2-d]pyrimidine-7-carbonyl]-amino}-cyclohexyl)-carbamic acid ethyl ester] | 1.07 nM
COc1ccc(OCC2CC2)c(-c2ncnc3c(C(=O)NC4CCN(C(C)=O)CC4)c[nH]c23)c1 [Example 71, 4-(2-Cyclopropylmethoxy-5-methoxy-phenyl)-5H-pyrrolo[3,2-d]pyrimidine-7-carboxylic acid (1-acetyl-piperidin-4-yl)-amide] | 1.35 nM
COc1ccc(OCC2CC2)c(-c2ncnc3c(C(=O)NC4CCN(C(=O)C5CC5)CC4)c[nH]c23)c1 [Example 72, 4-(2-Cyclopropylmethoxy-5-methoxy-phenyl)-5H-pyrrolo[3,2-d]pyrimidine-7-carboxylic acid (1-cyclopropanecarbonyl-piperidin-4-yl)-amide] | 0.437 nM
COCC(=O)N1CCC(NC(=O)c2c[nH]c3c(-c4cc(OC)ccc4OCC4CC4)ncnc23)CC1 [Example 73, 4-(2-Cyclopropylmethoxy-5-methoxy-phenyl)-5H-pyrrolo[3,2-d]pyrimidine-7-carboxylic acid [1-(2-methoxy-acetyl)piperidin-4-yl]-amide] | 1.86 nM
CCOC(=O)N1CCC(NC(=O)c2c[nH]c3c(-c4cc(OC)ccc4OCC4CC4)ncnc23)CC1 [Example 74, 4-{[4-(2-Cyclopropylmethoxy-5-methoxy-phenyl)-5H-pyrrolo[3,2-d]pyrimidine-7-carbonyl]-amino}-piperidine-1-carboxylic acid ethyl ester] | 0.55 nM
CC(=O)N[C@H]1CC[C@@H](NC(=O)c2c[nH]c3c(-c4ccc(F)cc4OCC4CC4)ncnc23)CC1 [Example 75, cis-4-(2-Cyclopropylmethoxy-4-fluoro-phenyl)-5H-pyrrolo[3,2-d]pyrimidine-7-carboxylic acid (4-acetylamino-cyclohexyl)-amide] | 1.58 nM
COCC(=O)N[C@H]1CC[C@@H](NC(=O)c2c[nH]c3c(-c4ccc(F)cc4OCC4CC4)ncnc23)CC1 [Example 76, cis-4-(2-Cyclopropylmethoxy-4-fluoro-phenyl)-5H-pyrrolo[3,2-d]pyrimidine-7-carboxylic acid [4-(2-methoxy-acetylamino)-cyclohexyl]-amide] | 2.4 nM
CCOC(=O)N[C@H]1CC[C@@H](NC(=O)c2c[nH]c3c(-c4ccc(F)cc4OCC4CC4)ncnc23)CC1 [Example 77, cis-(4-{[4-(2-Cyclopropylmethoxy-4-fluoro-phenyl)-5H-pyrrolo[3,2-d]pyrimidine-7-carbonyl]-amino}-cyclohexyl)-carbamic acid ethyl ester] | 2.14 nM
CC(=O)N[C@H]1CC[C@H](NC(=O)c2c[nH]c3c(-c4ccc(F)cc4OCC4CC4)ncnc23)CC1 [Example 78, trans-4-(2-Cyclopropylmethoxy-4-fluoro-phenyl)-5H-pyrrolo[3,2-d]pyrimidine-7-carboxylic acid (4-acetylamino-cyclohexyl)-amide] | 2.29 nM
COCC(=O)N[C@H]1CC[C@H](NC(=O)c2c[nH]c3c(-c4ccc(F)cc4OCC4CC4)ncnc23)CC1 [Example 79, trans-4-(2-Cyclopropylmethoxy-4-fluoro-phenyl)-5H-pyrrolo[3,2-d]pyrimidine-7-carboxylic acid [4-(2-methoxy-acetylamino)-cyclohexyl]-amide] | 1.55 nM
CCOC(=O)N[C@H]1CC[C@H](NC(=O)c2c[nH]c3c(-c4ccc(F)cc4OCC4CC4)ncnc23)CC1 [Example 80, trans-(4-{[4-(2-Cyclopropylmethoxy-4-fluoro-phenyl)-5H-pyrrolo[3,2-d]pyrimidine-7-carbonyl]-amino}-cyclohexyl)-carbamic acid ethyl ester] | 1.41 nM
CC(=O)N1CCC(NC(=O)c2c[nH]c3c(-c4ccc(F)cc4OCC4CC4)ncnc23)CC1 [Example 81, 4-(2-Cyclopropylmethoxy-4-fluoro-phenyl)-5H-pyrrolo[3,2-d]pyrimidine-7-carboxylic acid (1-acetyl-piperidin-4-yl)-amide] | 1.48 nM
CCC(=O)N1CCC(NC(=O)c2c[nH]c3c(-c4ccc(F)cc4OCC4CC4)ncnc23)CC1 [Example 82, 4-(2-Cyclopropylmethoxy-4-fluoro-phenyl)-5H-pyrrolo[3,2-d]pyrimidine-7-carboxylic acid (1-propionyl-piperidin-4-yl)-amide] | 1.1 nM
COCC(=O)N1CCC(NC(=O)c2c[nH]c3c(-c4ccc(F)cc4OCC4CC4)ncnc23)CC1 [Example 83, 4-(2-Cyclopropylmethoxy-4-fluoro-phenyl)-5H-pyrrolo[3,2-d]pyrimidine-7-carboxylic acid [1-(2-methoxy-acetyl)piperidin-4-yl]-amide] | 5.13 nM
CC(=O)N1CCC(NC(=O)c2c[nH]c3c(-c4cc(F)ccc4OCC4CC4)ncnc23)CC1 [Example 84, 4-(2-Cyclopropylmethoxy-5-fluoro-phenyl)-5H-pyrrolo[3,2-d]pyrimidine-7-carboxylic acid (1-acetyl-piperidin-4-yl)-amide] | 2.95 nM
CCC(=O)N1CCC(NC(=O)c2c[nH]c3c(-c4cc(F)ccc4OCC4CC4)ncnc23)CC1 [Example 85, 4-(2-Cyclopropylmethoxy-5-fluoro-phenyl)-5H-pyrrolo[3,2-d]pyrimidine-7-carboxylic acid (1-propionyl-piperidin-4-yl)-amide] | 1.58 nM
COCC(=O)N1CCC(NC(=O)c2c[nH]c3c(-c4cc(F)ccc4OCC4CC4)ncnc23)CC1 [Example 86, 4-(2-Cyclopropylmethoxy-5-fluoro-phenyl)-5H-pyrrolo[3,2-d]pyrimidine-7-carboxylic acid [1-(2-methoxy-acetyl)piperidin-4-yl]-amide] | 3.98 nM
CC(=O)N[C@H]1CC[C@H](NC(=O)c2c[nH]c3c(-c4cc(F)ccc4OCC4CC4)ncnc23)CC1 [Example 87, trans-4-(2-Cyclopropylmethoxy-5-fluoro-phenyl)-5H-pyrrolo[3,2-d]pyrimidine-7-carboxylic acid (4-acetylamino-cyclohexyl)-amide] | 1.12 nM
CCC(=O)N[C@H]1CC[C@H](NC(=O)c2c[nH]c3c(-c4cc(F)ccc4OCC4CC4)ncnc23)CC1 [Example 88, trans-4-(2-Cyclopropylmethoxy-5-fluoro-phenyl)-5H-pyrrolo[3,2-d]pyrimidine-7-carboxylic acid (4-propionylamino-cyclohexyl)-amide] | 1.66 nM
COCC(=O)N[C@H]1CC[C@H](NC(=O)c2c[nH]c3c(-c4cc(F)ccc4OCC4CC4)ncnc23)CC1 [Example 89, trans-4-(2-Cyclopropylmethoxy-5-fluoro-phenyl)-5H-pyrrolo[3,2-d]pyrimidine-7-carboxylic acid [4-(2-methoxy-acetylamino)-cyclohexyl]-amide] | 1.29 nM
CC(=O)N[C@H]1CC[C@H](NC(=O)c2c[nH]c3c(-c4ccccc4OCC4CC4)ncnc23)CC1 [Example 90, trans-4-(2-Cyclopropylmethoxy-phenyl)-5H-pyrrolo[3,2-d]pyrimidine-7-carboxylic acid (4-acetylamino-cyclohexyl)-amide] | 5.62 nM
COCC(=O)N[C@H]1CC[C@H](NC(=O)c2c[nH]c3c(-c4ccccc4OCC4CC4)ncnc23)CC1 [Example 91, trans-4-(2-Cyclopropylmethoxy-phenyl)-5H-pyrrolo[3,2-d]pyrimidine-7-carboxylic acid [4-(2-methoxy-acetylamino)-cyclohexyl]-amide] | 6.31 nM
CCOC(=O)N[C@H]1CC[C@H](NC(=O)c2c[nH]c3c(-c4ccccc4OCC4CC4)ncnc23)CC1 [Example 92, trans-(4-{[4-(2-Cyclopropylmethoxy-phenyl)-5H-pyrrolo[3,2-d]pyrimidine-7-carbonyl]-amino}-cyclohexyl)-carbamic acid ethyl ester] | 3.39 nM
O=C(N[C@H]1CC[C@H](NC(=O)C2CC2)CC1)c1c[nH]c2c(-c3ccccc3OCC3CC3)ncnc12 [Example 93, trans-4-(2-Cyclopropylmethoxy-phenyl)-5H-pyrrolo[3,2-d]pyrimidine-7-carboxylic acid [4-(cyclopropanecarbonyl-amino)cyclohexyl]-amide] | 2.51 nM
CC(=O)N1CCC(NC(=O)c2c[nH]c3c(-c4ccccc4OCC4CC4)ncnc23)CC1 [Example 94, 4-(2-Cyclopropylmethoxy-phenyl)-5H-pyrrolo[3,2-d]pyrimidine-7-carboxylic acid (1-acetyl-piperidin-4-yl)-amide] | 8.71 nM
CCOC(=O)N1CCC(NC(=O)c2c[nH]c3c(-c4ccccc4OCC4CC4)ncnc23)CC1 [Example 95, 4-{[4-(2-Cyclopropylmethoxy-phenyl)-5H-pyrrolo[3,2-d]pyrimidine-7-carbonyl]-amino}-piperidine-1-carboxylic acid ethyl ester] | 3.31 nM
O=C(NC1CCN(C(=O)C2CC2)CC1)c1c[nH]c2c(-c3ccccc3OCC3CC3)ncnc12 [Example 96, 4-(2-Cyclopropylmethoxy-phenyl)-5H-pyrrolo[3,2-d]pyrimidine-7-carboxylic acid (1-cyclopropanecarbonyl-piperidin-4-yl)-amide] | 2.14 nM
CCC(=O)N1CCC(NC(=O)c2c[nH]c3c(-c4cc(OC)c(F)cc4OCC4CC4)ncnc23)CC1 [Example 97, 4-(2-Cyclopropylmethoxy-4-fluoro-5-methoxy-phenyl)-5H-pyrrolo[3,2-d]pyrimidine-7-carboxylic acid (1-propionyl-piperidin-4-yl)-amide] | 0.117 nM
